pEC50, pIC50: −log10 of the molar value. Values joined by “and” are separate entries in the source; they are usually repeats but may differ in a detail not shown here. Identical values can stand only once.
How the values were obtained:
Type in all cases: cell-based
MDA-MB-231 [1] = experiment: Growth inhibition assay (MTS/PMS) with DFMO, MDA-MB-231; conditions: in the presence of DFMO (1-5 mM), 1 mM AG, 0.5 μM SPD, six days; repeat determinations; read-out: Cell Line EC50 MDA-MB-231
Method: (§1) Medias were obtained from Mediatech, Inc. (Herdon, Va.) and serums from Gibco BRL (Gaithersburg, Md.). 50 U/ml penicillin, 50 μg/ml streptomycin and 2 mM L-glutamine (all from Bio Whittaker, Walkersville, Md.) were included in all cultures. […] When cells were cultured with polyamines or ORI compounds, 1 mM aminoguanidine (AG; Sigma) was included to inhibit serum amine oxidase activity.

[2] = test system: 4 cell lines (A375, MDA-MB-231, PC-3, SK-OV-3); experiment: Growth inhibition with DFMO, average over 4 cell lines; conditions: for pEC50: Table 3, average over cell lines, with DFMO, read-out: AVG. EC50; for growth inhibition / EC50 with polyamine synthesis inhibitor, comparison in words: compared with lysine-spermine conjugates (ORI 1202, ORI 1426) or PAs lacking a hydrophobic domain
Method: Cells were plated in 96-well plates such that they would be in log growth for the duration of the assay. The day after plating, PAs were added to the cells, and growth, if any, permitted to continue for six days in the presence of 1 mM AG and 0.5 μM SPD to insure that any growth inhibition was not the result of depletion of external polyamines in the media. At the end of the six days, cell growth was measured by MTS/PMS dye assay (Cell Titer 96 Aqueous Non-Radioactive Cell Proliferation Assay; Promega, Madison, Wis.).

A375 [3] = experiment: Growth inhibition assay (MTS/PMS) with DFMO, A375; conditions: in the presence of DFMO (1-5 mM), 1 mM AG, 0.5 μM SPD, six days; repeat determinations; read-out: Cell Line EC50 A375
Method: as §1

PC-3 [4] = experiment: Growth inhibition assay (MTS/PMS) with DFMO, PC-3; conditions: in the presence of DFMO (1-5 mM), 1 mM AG, 0.5 μM SPD, six days; repeat determinations; read-out: Cell Line EC50 PC-3
Method: as §1

SK-OV-3 [5] = experiment: Growth inhibition assay (MTS/PMS) with DFMO, SK-OV-3; conditions: in the presence of DFMO (1-5 mM), 1 mM AG, 0.5 μM SPD, six days; repeat determinations; read-out: Cell Line EC50 SK-OV-3
Method: as §1

SK-OV-3 [6] = experiment: Growth inhibition assay, PA alone, SK-OV-3; conditions: PA alone (no DFMO), six days; repeat determinations; read-out: Cell Line IC50 SK-OV-3
Method: as §1

MDA-MB-231 [7] = experiment: Growth inhibition assay, PA alone, MDA-MB-231; conditions: PA alone (no DFMO), six days; repeat determinations; read-out: Cell Line IC50 MDA-MB-231
Method: as §1

A375 [8] = experiment: Growth inhibition assay, PA alone, A375; conditions: PA alone (no DFMO), six days; repeat determinations; read-out: Cell Line IC50 A375
Method: as §1

PC-3 [9] = experiment: Growth inhibition assay, PA alone, PC-3; conditions: PA alone (no DFMO), six days; repeat determinations; read-out: Cell Line IC50 PC-3
Method: as §1

SMILES | pEC50 (MDA-MB-231 [1]) | pEC50 [2] | pEC50 (A375 [3]) | pEC50 (PC-3 [4]) | pEC50 (SK-OV-3 [5]) | pIC50 (SK-OV-3 [6]) | pIC50 (MDA-MB-231 [7]) | pIC50 (A375 [8]) | pIC50 (PC-3 [9]) | growth inhibition / EC50 with polyamine synthesis inhibitor, comparison in words [2]
CCCCCCCCCCCCCCCCC(=O)NCCCC[C@H](N)C(=O)NCCCNCCCCNCCCN [IA3] | 7.49 and 7.74 | 7.28 | > 8.00 and 8.00 | 7.66 | 7.01 and 6.78 |  |  |  |  | 
CCCCCCCCCCCCCC(=O)NCCCC[C@H](N)C(=O)NCCCNCCCCNCCCN [IA5] | 6.68 | 5.90 | 7.60 | 6.72 | 5.34 | 4.67 | < 4.52 | < 4.52 | 5.01 | 
CCCCCCCC(=O)NCCCC[C@H](N)C(=O)NCCCNCCCCNCCCN [IA7] | 5.95 | 5.21 | 5.64 and 5.76 | 5.87 and 6.07 | < 4.52 | < 4.52 | < 4.52 | < 4.52 | < 4.52 | 
CC(=O)NCCCC[C@H](N)C(=O)NCCCNCCCCNCCCN [IA11] | < 4.52 |  | < 4.52 | 5.64 | < 4.52 | < 4.52 | < 4.52 | < 4.52 | < 4.52 | higher EC50
NCCCNCCCCNCCCNC(=O)[C@@H](N)CCCCNC(=O)CCCCCCCCC(=O)NCCCC[C@H](N)C(=O)NCCCNCCCCNCCCN [IA19] | < 4.52 |  | 6.67 | < 4.52 | < 4.52 | < 4.52 | < 4.52 | < 4.52 | < 4.52 | no improvement
NCCCNCCCCNCCCNC(=O)[C@@H](N)CCCCNC(=O)c1ccc(N)cc1 [IA28] | < 4.52 |  | 5.78 | 6.01 | < 4.52 | < 4.52 | < 4.52 | < 4.52 | < 4.52 | 
CC(C)CC(=O)NCCCC[C@@H](N)C(=O)NCCCNCCCCNCCCN [IB35] | < 4.00 | < 4.00 | < 4.00 | < 4.00 | < 4.00 | < 4.00 | < 4.00 | < 4.00 | < 4.00 | 
CCCCCCCCCCCCCCCC(=O)NC(CCCCN)C(=O)NCCCNCCCCNCCCN (stereo not shown) [ID4] | 6.20 | 5.90 | 6.36 | 5.88 | 5.58 | 4.74 | 4.73 | 4.75 | 4.73 | 
CCCCCCCC(=O)NC(CCCCN)C(=O)NCCCNCCCCNCCCN (stereo not shown) [ID7] | 5.08 | 5.02 | 5.28 | 5.13 | 4.76 | < 4.52 | < 4.52 | < 4.52 | < 4.52 | 
NCCCC[C@H](NC(=O)c1ccccc1)C(=O)NCCCNCCCCNCCCN [ID24] | 5.32 |  | 5.22 | 5.48 | < 4.52 | < 4.52 | < 4.52 | < 4.52 | < 4.52 | 
NCCCCC(NC(=O)c1ccco1)C(=O)NCCCNCCCCNCCCN (stereo not shown) [ID25] | 5.06 |  | 5.06 | 5.28 | < 4.52 | < 4.52 | < 4.52 | < 4.52 | < 4.52 | 
CCS(=O)(=O)NCCCC[C@H](N)C(=O)NCCCNCCCCNCCCN [IIA2] |  |  | < 4.52 | < 4.52 | < 4.52 | < 4.52 |  | < 4.52 | < 4.52 | 
NCCCNCCCCNCCCNC(=O)[C@@H](N)CCCCNS(=O)(=O)c1ccccc1 [IIA16] | 5.59 |  | 5.92 | 6.14 | < 4.52 | < 4.52 | < 4.52 | < 4.52 | < 4.52 | 
Cc1cc(C)c(S(=O)(=O)NCCCC[C@H](N)C(=O)NCCCNCCCCNCCCN)c(C)c1 [IIA17] | > 6.00 |  | 6.20 | 6.74 | 5.59 | < 4.52 | 3.22 | < 4.52 | < 4.52 | 
CN(C)c1cccc2c(S(=O)(=O)NCCCC[C@H](N)C(=O)NCCCNCCCCNCCCN)cccc12 [IIA20] | 5.79 | 5.89 | 6.39 | 6.33 | 5.58 | < 4.52 | < 4.52 | < 4.52 | < 4.52 | 

Now from value to compound:

pEC50 (MDA-MB-231 [1]) | pEC50 [2] | pEC50 (A375 [3]) | pEC50 (PC-3 [4]) | pEC50 (SK-OV-3 [5]) | pIC50 (SK-OV-3 [6]) | pIC50 (MDA-MB-231 [7]) | pIC50 (A375 [8]) | pIC50 (PC-3 [9]) | growth inhibition / EC50 with polyamine synthesis inhibitor, comparison in words [2] | SMILES
 |  | 5.14 | 5.44 | < 4.52 | < 4.52 |  | < 4.52 | < 4.52 |  | CCS(=O)(=O)NCCCC[C@@H](N)C(=O)NCCCNCCCCNCCCN [IIB2]
 |  | 5.82 | 6.04 | 4.58 | < 4.52 |  | < 4.52 | < 4.52 |  | Cc1cc(C)c(S(=O)(=O)NCCCC[C@@H](N)C(=O)NCCCNCCCCNCCCN)c(C)c1 [IIB17]
< 4.52 | < 4.52 | < 4.52 | < 4.52 | < 4.52 | < 4.52 | < 4.52 | < 4.52 | < 4.52 |  | CCS(=O)(=O)N[C@@H](CCCCN)C(=O)NCCCNCCCCNCCCN [IID2]
5.29 | 5.01 | 5.23 | 5.39 | 4.62 | < 4.52 | < 4.52 | < 4.52 | < 4.52 |  | Cc1cc(C)c(S(=O)(=O)NC(CCCCN)C(=O)NCCCNCCCCNCCCN)c(C)c1 (stereo not shown) [IID17]
6.71 | 6.58 | 7.12 | 6.41 | 6.40 | < 4.52 | < 4.52 | < 4.52 | < 4.52 |  | CCCCCCCC/C=C\CCCCCCCC(=O)NCCCC[C@H](N)C(=O)NCCCNCCCCNCCCN [IIIA1]
7.54 | 7.47 | 8.00 | 7.66 | 7.12 | < 4.52 | < 4.52 | < 4.52 | < 4.52 |  | CCCCCCCC/C=C/CCCCCCCC(=O)NCCCC[C@H](N)C(=O)NCCCNCCCCNCCCN [IIIA2]
6.68 |  | 7.08 |  |  |  | < 4.52 | < 4.52 |  |  | CCCCC/C=C\C/C=C\CCCCCCCC(=O)NCCCC[C@H](N)C(=O)NCCCNCCCCNCCCN [IIIA5]
7.33 | 7.26 | 7.74 | 7.22 | 7.02 | < 4.52 | < 4.52 | 4.65 | 4.59 |  | CCCCC/C=C/C/C=C/CCCCCCCC(=O)NCCCC[C@H](N)C(=O)NCCCNCCCCNCCCN [IIIA6]
6.67 | 6.06 | 7.06 | 6.59 | 5.53 | < 5.52 | < 5.52 | < 5.52 | < 5.52 |  | C[C@H](CCC(=O)NCCCC[C@H](N)C(=O)NCCCNCCCCNCCCN)[C@H]1CC[C@H]2[C@@H]3[C@H](O)C[C@@H]4C[C@H](O)CC[C@]4(C)[C@H]3C[C@H](O)[C@]12C [IIIA7]
6.29 | 6.40 | 6.27 | 6.54 | 6.62 | < 4.00 | < 4.00 | < 4.00 | < 4.00 |  | CCCCCCCNCCCC[C@H](N)C(=O)NCCCNCCCCNCCCN [IVA6]
7.72 | 7.41 | 8.00 | 7.34 | 7.09 | < 5.52 | < 5.52 | < 5.52 | < 5.52 |  | CCCCCCCCCCCCCCCCNCCCC[C@H](N)C(=O)NCCCNCCCCNCCCN [IVA11]
 | 7.10 | 7.30 and 7.21 | 7.12 | 6.85 | < 5.52 |  |  | < 5.52 |  | CCCC/C=C\CCCCCCCCCCNCCCC[C@H](N)C(=O)NCCCNCCCCNCCCN [IVA18]
5.78 | 5.99 | 6.13 | 6.15 | 6.03 | < 4.00 | < 4.00 | < 4.00 | < 4.00 |  | CC(C)(C)CCNCCCC[C@H](N)C(=O)NCCCNCCCCNCCCN [IVA22]
5.45 | 5.72 | 5.98 | 6.15 | 5.64 | < 4.00 | < 4.00 | < 4.00 | < 4.00 |  | NCCCNCCCCNCCCNC(=O)[C@@H](N)CCCCNCC1CC2C=CC1C2 (stereo partly shown) [IVA25]

From USRE43327E1, “Hydrophobic polyamine analogs and methods for their use” (Aminex Therapeutics, Inc., priority 2001, dated 2012)
